# Assay results published in patent US6407237B1, “Crystal forms of 9-substituted hypoxanthine derivatives” (NeoTherapeutics, Inc., priority 2000, dated 2002).
# “Also recorded” adds a separate entry of the source.
# Columns and labels:
# [1] = Hydration and dehydration (interconversion) studies of crystal structures, checked by X-ray powder pattern; type: physicochemical; details: for crystal structure after incubation in humid chamber (H2O vapor) at 25° C. / crystal structure after incubation in humid chamber (H2O vapor) at 70° C.: 48 h
# Method: X-ray powder patterns were measured with a β-Generator Philips PW 1120/90 equipped with a CuKα Guinier-de Wolff Camera No. 11 (Enraf-Nonius).
# Starting from different crystal structures, hydration and dehydration studies were performed (FIG. 1, Table 2). The crystal structure designated Type I (lot NTA-107-B) is obtained by equilibration of Type II (lot NTA-107-A) with water vapor in a humid chamber, whereas Type III was generated by dehydration of Type I in a vacuum drying oven at elevated temperature (Tables 1 and 2). The X-ray powder patterns of the Type I and II crystal structures are not sensitive to small changes in the water content and appear uniform from batch to batch.
# The well-resolved powder diagrams of these two forms indicate well ordered crystal lattice structures (FIG. 3). […] The manufacturing process leads to a water-soluble (5% w/v) crystalline product of the monopotassium salt of N-4-carboxyphenyl-3-(6-oxohydropurin-9-yl) propanamide monohydrate Type I (active pharmaceutical ingredient). N-4-carboxyphenyl-3-(6-oxohydropurin-9-yl) propanamide monopotassium salt exists, as known so far, in three different crystal structures (Types I-III) depending upon the water content.
# [2] = Hygroscopicity of the crystal structure; type: physicochemical
# [3] = type: physicochemical
# Excerpt: The occurrence of polymorphic forms can be examined by various physico-chemical investigation techniques. The solubility measured under defined conditions can provide information regarding the occurrence of different crystal structures. However, the preferred technique for the investigation of the polymorphism of N-4-carboxyphenyl-3-(6-oxohydropurin-9-yl) propanamide monopotassium salt is the analysis of the X-ray diffraction powder diagrams, which allows the distinct crystal structures to be clearly distinguished by their characteristic powder patterns. The powder pattern, position, intensity and sharpness of the bands are dependent upon the crystal structure and the fine arrangement of the atoms in the crystal lattice, which in turn are both influenced by the content of crystal water. For this study, material from different batches of N-4-carboxyphenyl-3-(6-oxohydropurin-9-yl) propanamide monopotassium salt was used, either in the original or in a dry or wet state (Table 1).
# In aqueous solutions prepared with material which was synthesized by the route designated “direct crystallization” a fine microcrystalline precipitate of the N-4-carboxyphenyl-3-(6-oxohydropurin-9-yl) propanamide free acid was formed after 2-3 min. Although the assay of K is 1.0 equivalent and although direct crystallized K-salt is isolated at equal or slightly higher pH (H 8.7) than K-salt synthesized from N-4-carboxyphenyl-3-(6-oxohydropurin-9-yl) propanamide free acid (pH 8.5), only the latter is completely soluble in water. […] The free acid precipitates and generates the di-K salt until its concentration is high enough to keep the precipitation and dissolution of the free acid at equilibrium. The solubility of N-4-carboxyphenyl-3-(6-oxohydropurin-9-yl) propanamide Type II (lot Am 960/a) in aqueous solution was measured as a function of temperature (FIG. 2). In the solubility curve a plateau is reached at 70° C. (17% w/w).
structure (smiles),measurement,setting,value
"O.O=C(CCn1cnc2c(=O)[nH]cnc21)Nc1ccc(C(=O)[O-])cc1.[K+] [Type I, N-4-carboxyphenyl-3-(6-oxohydropurin-9-yl) propanamide monopotassium salt monohydrate]",crystal structure after incubation in humid chamber (H2O vapor) at 25° C.,[1]; monopotassium salt monohydrate,stable; also recorded: remains unchanged; also recorded: Type I
same,crystal structure after incubation in humid chamber (H2O vapor) at 70° C.,[1]; monopotassium salt monohydrate,stable; also recorded: remains unchanged; also recorded: Type I
same,crystal structure after strong drying in vacuum oven,"[1]; 140° C., 5 mbar, monopotassium salt monohydrate",Type III was obtained
same,hygroscopicity,[2],only slightly hygroscopic
"O=C(CCn1cnc2c(=O)[nH]cnc21)Nc1ccc(C(=O)[O-])cc1.[K+] [Type II, N-4-carboxyphenyl-3-(6-oxohydropurin-9-yl) propanamide monopotassium salt]",crystal structure after incubation in humid chamber (H2O vapor) at 25° C.,[1]; monopotassium salt,Type II
same,crystal structure after incubation in humid chamber (H2O vapor) at 70° C.,[1]; monopotassium salt,interconversion of Type II into Type I crystal structure
same,"solubility in aqueous solution as a function of temperature, plateau of solubility curve",[3],17 % w/w
same,solubility in water,[3],about 10 % (w/v)
"O=C(CCn1cnc2c(=O)[nH]cnc21)Nc1ccc(C(=O)[O-])cc1.[K+] [Type III, N-4-carboxyphenyl-3-(6-oxohydropurin-9-yl) propanamide monopotassium salt]",crystal structure after incubation in humid chamber (H2O vapor) at 25° C.,[1]; monopotassium salt,turns completely into Type I
"O=C(CCn1cnc2c(=O)[nH]cnc21)Nc1ccc(C(=O)O)cc1 [free acid, N-4-carboxyphenyl-3-(6-oxohydropurin-9-yl) propanamide]",solubility of the free acid in water,[3],extreme low solubility
